According to patent US20250177412A1, “SMALL-MOLECULE INHIBITORS TARGETING THE BOB1/OCT1 INTERFACE” (NANTES UNIVERSITE, priority 2022, published 2025):
pKd: −log10 of the molar value.

Legend:
HEK293 cells = test: MTT assay; format: cell-based; details: data not shown
[1] = target: T1, POU domain of OCT1 (POU1) (Homo sapiens, UniProt P14859); test: Kd measurement (fluorescence emission spectra, Hill's coordinates); format: binding; details: 298.15 K
T1 construct: 6xHis (pET28 N-terminal histidine tag) (N); made in house; host or cells: E. coli BL21
T1 sequence (P14859 280-438): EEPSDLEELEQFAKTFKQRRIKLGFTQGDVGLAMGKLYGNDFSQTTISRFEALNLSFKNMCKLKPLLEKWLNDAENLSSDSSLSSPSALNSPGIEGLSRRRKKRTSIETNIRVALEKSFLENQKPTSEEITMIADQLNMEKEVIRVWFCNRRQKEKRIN

[2] = target: T1, POU domain of OCT1 (POU1); test: Thermal shift assay (TSA); format: binding; details: compound 10 μM, POU1 5 μM
Method: Following primers were used for the amplification:
POU1 and BOB1 proteins (each at a final concentration 5 μM), compound 005 (final concentration 10 μM), and 1× ProteOrange fluorescent dye (Lumiprobe, Russia) were mixed in triplicates in 100 μL of 0.1 M phosphate buffered saline pH 7.4 per and pipetted into 96-well 0.2-mL thin-wall PCR plates (Roche Life Science, Switzerland) sealed with optical-grade sealing film. Fluorescence data were acquired on a LightCycler® 96 Real Time PCR Instrument (Roche Life Science, Switzerland) with an excitation range of 470-533 nm. The fluorescence emission signal at […] was measured for data analysis. The temperature was held for 30 sec per degree from 37 to 98° C. (ramp rate of […]). The derivatives of the fluorescence signal as function of the temperature were used for further analysis.

naïve B cells = test: In vitro plasmablast differentiation with naive B cells; format: cell-based, human; details: data not shown
From the text: Blood samples were obtained from healthy volunteers provided by Sanquin Blood Supply Foundation (Amsterdam, the Netherlands) or from Etablissement Français du Sang (Nantes, France) after written consent was obtained. Peripheral blood mononuclear cells (PBMCs) were isolated through Ficoll-Paque gradient centrifugation on Lymphoprep (Nycomed). Total B cells were isolated from freshly purified PBMCs by negative selection (B cell Isolation Kit II; Miltenyi Biotech, 130-091-151) on magnetic columns using autoMACS Pro Separator according to the manufacturer's instructions. […] Ultimately, purity of the MACS-isolated CD19^+ B cells, CD19^+CD27^+IgD^− memory B cells and CD19^+CD27^−IgD^+ […] was assessed by flow cytometry; purity was >90% for B cells, >65% for memory B cells, and >85% for naive B cells. […]
B cells were stimulated to differentiate into plasmablasts using a two-phase cell culture protocol as previously described. […] At days 0, 4 and 7, B cells were stained with viability marker LIVE/DEAD Fixable Aqua Dead Cell Stain (Thermofisher) to identify dead cells, followed by extracellular staining with anti-human mAbs: anti-CD20 FITC, anti-IgD BUV395, anti-CD27 BUV737, anti-CD38 BV605 (all from BD Biosciences) and analyzed by flow cytometry (FACSCelesta™, BD Biosciences). […]

Cc1ccc(NC(=O)C2CN(c3nc(NCCCc4ccc(F)cc4)nc(NCCC(=O)O)n3)c3ccccc3O2)cc1Cl (stereo not drawn) [compound 005, 3-((4-(2-((3-chloro-4-methylphenyl)carbamoyl)-2,3-dihydro-4H-benzo[b][1,4]oxazin-4-yl)-6-((3-(4-fluorophenyl)propyl)amino)-1,3,5-triazin-2-yl)amino)propanoic acid]
toxicity for HEK293 cells (HEK293 cells; concentrations up to 40 μM): non-toxic or mildly toxic
concentration from which inhibitory effect is observed in MTT assay (HEK293 cells): ≥ 10 µM
pKd ([1]; POU1 3 μM): 9.00
ΔG (change of Gibb's energy) of binding ([1]; calculated from Kb): negative value
increase of POU1 melting temperature [2]: about 4 °C
effect on proliferation, CD38 and CD20 expression and plasmablast differentiation (naïve B cells): comparable dose-dependent effect
